Assay [1] concerns the target human adenosine A2B receptor (Homo sapiens (Human), UniProt P29275). Kind of assay: Adenosine A2B Receptor Cyclic AMP GS Assay. It is filed as cell-based. To be noted: HEK-293 cells expressing human A2B, agonist NECA 12 nM. The essentials:
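Stably transfected HEK-293 cells were preincubated with compound for 30 min at room temperature, then stimulated with 12 nM NECA for 60 min. cAMP accumulation was read by FRET (665/620 ratio), and EC50 was fitted from percent of control versus log compound concentration.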

The target in another assay is Adenosine A2A (Homo sapiens (Human), UniProt P29274). Briefly: A2A Tag-Lite HTRF assay. The assay is classed as binding. From the text:
Example C. A2A Tag-Lite® HTRF Assay
In general terms: In TR-FRET formats the signal depends on donor and acceptor labels being close together.

Setting [2] is: Tag-Lite Adenosine A2A labeled cells, fluorescent ligand 12.5 nM; read-out: A2A_Ki.

Each structure is given as a SMILES string. Read-outs that look alike come from different tables or passages of the source. A value given as a limit tells only on which side of the number the result lay.

Adenosine A2A, sequence (P29274 whole entry): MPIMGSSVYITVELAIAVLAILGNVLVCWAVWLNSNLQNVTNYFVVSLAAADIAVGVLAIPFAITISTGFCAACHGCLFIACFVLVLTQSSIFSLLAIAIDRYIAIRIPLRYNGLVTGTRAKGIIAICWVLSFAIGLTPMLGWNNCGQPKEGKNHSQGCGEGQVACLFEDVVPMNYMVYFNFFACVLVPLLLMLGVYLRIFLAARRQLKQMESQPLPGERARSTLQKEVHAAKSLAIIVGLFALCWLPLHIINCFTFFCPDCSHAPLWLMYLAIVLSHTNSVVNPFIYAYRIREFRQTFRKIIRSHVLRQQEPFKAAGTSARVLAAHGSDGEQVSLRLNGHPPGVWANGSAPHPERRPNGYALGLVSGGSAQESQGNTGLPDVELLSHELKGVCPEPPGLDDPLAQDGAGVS
human adenosine A2B receptor, sequence (P29275 whole entry): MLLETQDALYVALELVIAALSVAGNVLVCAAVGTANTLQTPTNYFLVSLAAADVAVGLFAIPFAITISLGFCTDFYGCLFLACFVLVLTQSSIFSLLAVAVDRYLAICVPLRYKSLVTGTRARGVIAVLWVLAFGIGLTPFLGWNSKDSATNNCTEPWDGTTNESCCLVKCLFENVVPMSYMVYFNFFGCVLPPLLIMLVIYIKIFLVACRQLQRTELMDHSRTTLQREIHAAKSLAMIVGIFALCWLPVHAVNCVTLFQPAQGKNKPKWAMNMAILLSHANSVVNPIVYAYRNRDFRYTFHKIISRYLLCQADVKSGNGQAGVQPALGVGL

`N#Cc1cccc(-c2nc(N)c3nc(S(=O)(=O)c4ccccc4)nn3c2-c2ccncn2)c1` [Example 60, 3-(8-Amino-2-(phenylsulfonyl)-5-(pyrimidin-4-yl)-[1,2,4]triazolo[1,5-a]pyrazin-6-yl)benzonitrile] returned an EC50 in assay [1] (A2B_cAMP_EC50 (nM)) of 10 to 100 nM. For the same compound, the Ki on Adenosine A2A (setting [2]) is less than 10 nM.

As for `N#Cc1cccc(-c2nc(N)c3ncnn3c2-c2ccc3nccn3c2)c1` [Example 124, 3-(8-Amino-5-(imidazo[1,2-a]pyridin-6-yl)-[1,2,4]triazolo[1,5-a]pyrazin-6-yl)benzonitrile], the EC50 in assay [1] (A2B_cAMP_EC50 (nM)) is less than 10 nM. The Ki at Adenosine A2A (setting [2]) is less than 10 nM.

Take `N#Cc1cccc(-c2nc(N)c3cc(Cc4ccccc4F)nn3c2C2=CCN(C(N)=O)CC2)c1` [Example 19, 4-(4-Amino-6-(3-cyanophenyl)-2-(2-fluorobenzyl)pyrazolo[1,5-a]pyrazin-7-yl)-5,6-dihydropyridine-1(2H)-carboxamide]: the EC50 in assay [1] (A2B_cAMP_EC50 (nM)) lay within 10 to 100 nM. The Ki on Adenosine A2A (setting [2]) was less than 10 nM.

`Cc1cc(-c2c(-c3cccc(C#N)c3)nc(N)c3nc(C(O)c4c(F)cccc4F)nn23)cc(C)n1` (single isomer, unassigned) [Example 95, 3-(8-amino-2-((2,6-difluorophenyl)(hydroxy)methyl)-5-(2,6-dimethylpyridin-4-yl)-[1,2,4]triazolo[1,5-a]pyrazin-6-yl)benzonitrile]: the EC50 in assay [1] (read-out: A2B_cAMP_EC50) lay within 10 to 100 nM. For the same compound, the Ki on Adenosine A2A (read-out: A2A_Ki; Tag-Lite Adenosine A2A labeled cells, fluorescent ligand 12.5 nM) is less than 10 nM.

`Cn1nccc1-c1cccc(F)c1Cc1nc2c(N)nc(-c3cccc(C#N)c3)c(-c3ccncn3)n2n1` [Example 64, 3-(8-amino-2-(2-fluoro-6-(1-methyl-1H-pyrazol-5-yl)benzyl)-5-(pyrimidin-4-yl)-[1,2,4]triazolo[1,5-a]pyrazin-6-yl)benzonitrile] returned an EC50 in assay [1] (A2B_cAMP_EC50 (nM)) of less than 10 nM. On Adenosine A2A (setting [2]), the Ki is less than 10 nM.

On to `CN(C)C(=O)Cn1cc(-c2cccc(F)c2Cc2nc3c(N)nc(-c4cccc(C#N)c4F)cn3n2)cn1` [Example 114, 2-(4-(2-((8-amino-6-(3-cyano-2-fluorophenyl)-[1,2,4]triazolo[1,5-a]pyrazin-2-yl)methyl)-3-fluorophenyl)-1H-pyrazol-1-yl)-N,N-dimethylacetamide], for which the EC50 in assay [1] (A2B_cAMP_EC50 (nM)) lay in the range of 10 to 100 nM. Also, the Ki at Adenosine A2A (setting [2]) is less than 10 nM.
